Source: patent US6737383B1, “Herbicidal oxadiazolidines” (priority 1999, dated 2004)

Key:
bamyardgrass = assay: Test B flood test barnyardgrass; type: in vivo, Echinochloa crus-galli
Method in brief: (§1)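 Read-out is a visual response score from 0 (no effect) to 10 (complete control), assigned by comparison with untreated controls. Treatment was applied at the 2-leaf stage, and plants stayed in the greenhouse for twelve to sixteen days before scoring.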

wheat = assay: Test B pre/postemergence wheat; type: in vivo, Triticum aestivum; conditions: for Plant response rating, Wheat: Postemergence
Method in brief: (§2)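 Herbicidal effect was estimated by eye on a ten-point control scale after plants spent twelve to sixteen days in a greenhouse following soil or foliar treatment. Foliar sprays targeted plants at one to four leaves; all doses were formulated in a non-phytotoxic solvent with surfactant.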

purple nutsedge = assay: Test B pre/postemergence purple nutsedge; type: in vivo, Cyperus rotundus
Method in brief: as §2

rape = assay: Test B pre/postemergence rape; type: in vivo, Brassica napus
Method in brief: as §2

rice = assay: Test B flood test rice; type: in vivo, Oryza sativa
Method in brief: as §1

pigweed = assay: Test B pre/postemergence pigweed; type: in vivo, Amaranthus retroflexus; conditions: for Plant response rating, Redroot pigweed: Postemergence
Method in brief: as §2

morningglory = assay: Test B pre/postemergence morningglory; type: in vivo, Ipomoea hederacea
Method in brief: as §2

smallflower flatsedge = assay: Test B flood test smallflower flatsedge; type: in vivo, Cyperus difformis
Method in brief: as §1

surinam grass = assay: Test B pre/postemergence surinam grass; type: in vivo, Brachiaria decumbens
Method in brief: as §2

cocklebur = assay: Test B pre/postemergence cocklebur; type: in vivo, Xanthium strumarium
Method in brief: as §2

sugar beet = assay: Test B pre/postemergence sugar beet; type: in vivo, Beta vulgaris; conditions: for Plant response rating, Sugarbeets: Postemergence
Method in brief: as §2

soybean = assay: Test B pre/postemergence soybean; type: in vivo, Glycine max; conditions: for Plant response rating, Soybean: Postemergence
Method in brief: as §2

duck salad = assay: Test B flood test duck salad; type: in vivo, Heteranthera limosa
Method in brief: as §1

giant foxtail = assay: Test B pre/postemergence giant foxtail; type: in vivo, Setaria faberii
Method in brief: as §2

blackgrass = assay: Test B pre/postemergence blackgrass; type: in vivo, Alopecurus myosuroides
Method in brief: as §2

wild oat = assay: Test B pre/postemergence wild oat; type: in vivo, Avena fatua; conditions: for Plant response rating, Wild oats: Postemergence
Method in brief: as §2

crabgrass = assay: Test B pre/postemergence crabgrass; type: in vivo, Digitaria sanguinalis
Method in brief: as §2

bedstraw = assay: Test B pre/postemergence bedstraw; type: in vivo, Galium aparine
Method in brief: as §2

corn = assay: Test B pre/postemergence corn; type: in vivo, Zea mays
Method in brief: as §2

velvetleaf = assay: Test B pre/postemergence velvetleaf; type: in vivo, Abutilon theophrasti; conditions: for Plant response rating, Velvetleaf: Postemergence
Method in brief: as §2

[1] = Rate 62 g/ha, flood test species, Pre-emergence, visual evaluation after twelve to sixteen days
[2] = Rate 125 g/ha, under heading Pre-emergence, flood test species, visual evaluation after twelve to sixteen days
[3] = Rate 250 g/ha, Pre-emergence (flood test species), scale 0 to 10, 0 is no effect, 10 is complete control
[4] = Rate 500 g/ha, Pre-emergence section of Table B, 0 to 10 scale (0 no effect, 10 complete control)
[5] = Rate 500 g/ha, scale of 0 to 10 where 0 is no effect and 10 is complete control
[6] = Preemergence, Rate 62 g/ha, scale 0 to 10 (0 no effect, 10 complete control)
[7] = Preemergence, Rate 125 g/ha, scale 0 to 10, 0 is no effect, 10 is complete control
[8] = Preemergence, Rate 500 g/ha, scale of 0 to 10 where 0 is no effect and 10 is complete control
[9] = Rate 250 g/ha, scale of 0 to 10 where 0 is no effect and 10 is complete control
[10] = Postemergence, Rate 62 g/ha, scale of 0 to 10, 0 is no effect, 10 is complete control
[11] = Postemergence, Rate 125 g/ha, scale 0 to 10, 0 is no effect, 10 is complete control
[12] = Postemergence, Rate 500 g/ha, scale of 0 to 10 where 0 is no effect and 10 is complete control
[13] = Rate 250 g/ha, Postemergence, scale of 0 to 10 where 0 is no effect and 10 is complete control

CC(C)N(C(=O)n1oc(=O)n(CC2CC2)c1=O)c1ccccc1 [Compound 568]
7: Rape plant response rating (rape; [8]) | Morningglory plant response rating (morningglory; [10]) | Plant response rating, B. signalgrass (surinam grass; [12]) | Plant response rating, B. signalgrass (surinam grass; [13]) | Giant foxtail plant response rating (giant foxtail; [10]) | Crabgrass plant response rating (crabgrass; [6]) | Crabgrass plant response rating (crabgrass; [7]) | Velvetleaf plant response rating (velvetleaf; [8])
10: Morningglory plant response rating (morningglory; [11]) | Plant response rating, Morningglory (morningglory; [12]) | Plant response rating, Morningglory (morningglory; [13]) | Giant foxtail plant response rating (giant foxtail; [7]) | Giant foxtail plant response rating (0 to 10 scale) (giant foxtail; Preemergence, Rate 250 g/ha) | Giant foxtail plant response rating (giant foxtail; [8]) | Crabgrass plant response rating (crabgrass; [8])
3: Barnyardgrass plant response rating (bamyardgrass; [3]) | Nutsedge plant response rating (purple nutsedge; [8]) | Plant response rating, Rape (rape; [12]) | B. signalgrass plant response rating (surinam grass; [6]) | Soybean plant response rating (0 to 10 scale) (soybean; Preemergence, Rate 250 g/ha) | Bedstraw plant response rating (0 to 10 scale) (bedstraw; Preemergence, Rate 250 g/ha)
8: Redroot pigweed plant response rating (pigweed; [8]) | B. signalgrass plant response rating (0 to 10 scale, 0 is no effect, 10 is complete control) (surinam grass; Preemergence, Rate 250 g/ha) | Sugarbeets plant response rating (sugar beet; [8]) | Blackgrass plant response rating (blackgrass; [10]) | Blackgrass plant response rating (blackgrass; [11]) | Blackgrass plant response rating (blackgrass; [7]) | Blackgrass plant response rating (0 to 10 scale) (blackgrass; Preemergence, Rate 250 g/ha) | Plant response rating, Blackgrass (blackgrass; [13]) | Wild oats plant response rating (wild oat; [8]) | Crabgrass plant response rating (crabgrass; [10]) | Crabgrass plant response rating (crabgrass; [11]) | Bedstraw plant response rating (bedstraw; [8]) | Plant response rating, Velvetleaf (velvetleaf; [5])
0: Plant response rating, Barnyardgrass (0 to 10 scale, 0 is no effect, 10 is complete control) (bamyardgrass; [1]) | Barnyardgrass plant response rating (0 to 10 scale, 0 is no effect, 10 is complete control) (bamyardgrass; [2]) | Wheat plant response rating (wheat; [6]) | Wheat plant response rating (wheat; [7]) | Wheat plant response rating (0 to 10 scale) (wheat; Preemergence, Rate 250 g/ha) | Nutsedge plant response rating (purple nutsedge; [10]) | Nutsedge plant response rating (purple nutsedge; [11]) | Plant response rating, Nutsedge (purple nutsedge; [12]) | Nutsedge plant response rating (purple nutsedge; [6]) | Nutsedge plant response rating (purple nutsedge; [7]) | Nutsedge plant response rating (0 to 10 scale) (purple nutsedge; Preemergence, Rate 250 g/ha) | Plant response rating, Nutsedge (purple nutsedge; [13]) | Rape plant response rating (rape; [10]) | Rape plant response rating (rape; [11]) | Rape plant response rating (rape; [6]) | Rape plant response rating (rape; [7]) | Rice plant response rating (rice; [3]) | Rice plant response rating (rice; [4]) | Plant response rating, Redroot pigweed (pigweed; [9]) | Morningglory plant response rating (morningglory; [6]) | Morningglory plant response rating (morningglory; [7]) | Plant response rating, S. Flatsedge (0 to 10 scale, 0 is no effect, 10 is complete control) (smallflower flatsedge; [1]) | S. Flatsedge plant response rating (0 to 10 scale, 0 is no effect, 10 is complete control) (smallflower flatsedge; [2]) | S. Flatsedge plant response rating (smallflower flatsedge; [3]) | Cocklebur plant response rating (cocklebur; [6]) | Cocklebur plant response rating (cocklebur; [7]) | Cocklebur plant response rating (0 to 10 scale) (cocklebur; Preemergence, Rate 250 g/ha) | Soybean plant response rating (soybean; [6]) | Soybean plant response rating (soybean; [7]) | Plant response rating, Ducksalad (0 to 10 scale, 0 is no effect, 10 is complete control) (duck salad; [1]) | Ducksalad plant response rating (0 to 10 scale, 0 is no effect, 10 is complete control) (duck salad; [2]) | Ducksalad plant response rating (duck salad; [3]) | Bedstraw plant response rating (bedstraw; [10]) | Bedstraw plant response rating (bedstraw; [6]) | Corn plant response rating (corn; [10]) | Corn plant response rating (corn; [11]) | Corn plant response rating (corn; [6])
9: B. signalgrass plant response rating (surinam grass; [8]) | Soybean plant response rating (soybean; [8]) | Giant foxtail plant response rating (giant foxtail; [11]) | Plant response rating, Giant foxtail (giant foxtail; [12]) | Giant foxtail plant response rating (giant foxtail; [6]) | Plant response rating, Giant foxtail (giant foxtail; [13]) | Plant response rating, Blackgrass (blackgrass; [12]) | Blackgrass plant response rating (blackgrass; [8]) | Plant response rating, Crabgrass (crabgrass; [12]) | Crabgrass plant response rating (0 to 10 scale) (crabgrass; Preemergence, Rate 250 g/ha) | Plant response rating, Crabgrass (crabgrass; [13]) | Corn plant response rating (corn; [8])
6: Barnyardgrass plant response rating (bamyardgrass; [4]) | Morningglory plant response rating (morningglory; [8]) | B. signalgrass plant response rating (surinam grass; [7]) | Plant response rating, Cocklebur (cocklebur; [12]) | Sugarbeets plant response rating (0 to 10 scale) (sugar beet; Preemergence, Rate 250 g/ha) | Plant response rating, Soybean (soybean; [5]) | Plant response rating, Soybean (soybean; [9]) | Plant response rating, Wild oats (wild oat; [5]) | Wild oats plant response rating (0 to 10 scale) (wild oat; Preemergence, Rate 250 g/ha) | Velvetleaf plant response rating (velvetleaf; [7]) | Velvetleaf plant response rating (0 to 10 scale) (velvetleaf; Preemergence, Rate 250 g/ha)
1: Plant response rating, Rice (0 to 10 scale, 0 is no effect, 10 is complete control) (rice; [1]) | Rice plant response rating (0 to 10 scale, 0 is no effect, 10 is complete control) (rice; [2]) | B. signalgrass plant response rating (surinam grass; [10]) | Cocklebur plant response rating (cocklebur; [10]) | Cocklebur plant response rating (cocklebur; [11]) | Plant response rating, Cocklebur (cocklebur; [13]) | Plant response rating, Sugarbeets (sugar beet; [9])
5: Plant response rating, Wheat (wheat; [5]) | Wheat plant response rating (wheat; [8]) | Rape plant response rating (0 to 10 scale) (rape; Preemergence, Rate 250 g/ha) | Sugarbeets plant response rating (sugar beet; [6]) | Sugarbeets plant response rating (sugar beet; [7]) | Blackgrass plant response rating (blackgrass; [6]) | Wild oats plant response rating (wild oat; [6]) | Wild oats plant response rating (wild oat; [7]) | Plant response rating, Corn (corn; [12]) | Corn plant response rating (0 to 10 scale) (corn; Preemergence, Rate 250 g/ha) | Velvetleaf plant response rating (velvetleaf; [6]) | Plant response rating, Velvetleaf (velvetleaf; [9])
4: Plant response rating, Wheat (wheat; [9]) | Redroot pigweed plant response rating (pigweed; [7]) | Redroot pigweed plant response rating (0 to 10 scale) (pigweed; Preemergence, Rate 250 g/ha) | S. Flatsedge plant response rating (smallflower flatsedge; [4]) | B. signalgrass plant response rating (surinam grass; [11]) | Corn plant response rating (corn; [7]) | Plant response rating, Corn (corn; [13])
2: Plant response rating, Rape (rape; [13]) | Plant response rating, Redroot pigweed (pigweed; [5]) | Redroot pigweed plant response rating (pigweed; [6]) | Morningglory plant response rating (0 to 10 scale) (morningglory; Preemergence, Rate 250 g/ha) | Cocklebur plant response rating (cocklebur; [8]) | Plant response rating, Sugarbeets (sugar beet; [5]) | Ducksalad plant response rating (duck salad; [4]) | Plant response rating, Wild oats (wild oat; [9]) | Bedstraw plant response rating (bedstraw; [11])
